Results: PMC9944328 (Nature Communications, 2023)
Read-outs that look alike come from different tables or passages of the source.

Tested on: SSTR2 mutants
Experiment: NanoBiT β-arrestin 1 recruitment assay, HEK293 (SSTR2 mutants);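 as to Emax: percent of the maximal wild-type SSTR2 response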;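 as to Top: percent of maximal wild-type response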
Assay type: cell-based, human
Design: Bottom / Span / Bottom (best-fit) / Span (best-fit) / Best-fit values Bottom / Best-fit values Span / Bottom (best-fit value) / Span (best-fit value):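 percent of maximal wild-type response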
Conditions: for EC50: read-out: EC50
Experimental: The NanoBiT β-arrestin 1 recruitment assays were carried out according to the method described previously. […] Human full-length SSTR wild-type and mutant vectors were C-terminally fused with a 15-amino acid flexible linker and the small fragment (SmBiT). HEK293 cells were seeded into six-well microplates at a density of 1.0 × 10^6 cells/well and cultured for 24 h at 37 °C with 5% CO2. After that, cells were co-transfected with pcDNA3.1+ vectors encoding SSTR wild-type or mutants and human β-arrestin 1. After transfecting for 24 h, the transfected cells were suspended and seeded into white 96-well plates, and then cultured at 37 °C overnight. After that the medium in each well was exchanged for 90 μl of 0.01% bovine serum albumin containing 20 μl of 50 μM coelenterazine h (Carbosynth) diluted in the HBSS assay buffer and incubated for 40 min at room temperature. Then, ligands diluted in the assay buffer was added to each well and the luminescence intensity was measured using the Synergy H1 microplate reader and detected at room temperature in a time period. All data presented are means of at least three independent experiments.

[1] = β-arrestin recruitment, SSTR2 F127(3.37)A, n=3
[2] = β-arrestin recruitment, SSTR2 I195(45.52)A, n=3, ND = not detected
[3] = β-arrestin recruitment, SSTR2 I284ECL3A, n=3
[4] = β-arrestin recruitment, SSTR2 L290(7.31)A, n=3
[5] = β-arrestin recruitment, SSTR2 P286ECL3A, n=3
[6] = β-arrestin recruitment, SSTR2 S279(6.58)A, n=3
[7] = β-arrestin recruitment, SSTR2 S285ECL3A, n=3
[8] = β-arrestin recruitment, SSTR2 T287ECL3A, n=3
[9] = β-arrestin recruitment, SSTR2 V103(2.64)A, n=3, ND = not detected
[10] = β-arrestin recruitment, SSTR2 W188ECL3A, n=3
[11] = β-arrestin recruitment, SSTR2 W269(6.48)A, n=3
[12] = β-arrestin recruitment, SSTR2 Y50(1.39)A, n=3
[13] = β-arrestin recruitment, SSTR2 Y205(5.35)A, n=3
[14] = β-arrestin recruitment, SSTR2 Y302(7.43)A, n=3

Compound C[C@@H](O)[C@@H]1NC(=O)[C@H](CCCCN)NC(=O)[C@@H](Cc2c[nH]c3ccccc23)NC(=O)[C@H](Cc2ccccc2)NC(=O)[C@@H](NC(=O)[C@H](N)Cc2ccccc2)CSSC[C@@H](C(=O)N[C@H](CO)[C@@H](C)O)NC1=O [octreotide] has a Bottom (best-fit, S285A-3) of 9.309, a LogEC50 (best-fit, S285A-3) of -8.736 and a Span (best-fit, S285A-3) of 80.53. The Top (best-fit, S285A-3) was 89.84, the EC50 (best-fit, S285A-3) was 1.84 nM and the Bottom (best-fit, T194A-1) was -0.5401. The Top (best-fit, T194A-1) was 55.89, the Bottom (best-fit, T194A-2) was -0.9576 and the Top (best-fit, T194A-2) was 54.95. It also gave a Bottom (best-fit, T194A-3) of -0.591, a Top (best-fit, T194A-3) of 56.22 and a Bottom (best-fit, T287A-1) of 4.198. For the same compound, the LogEC50 (best-fit, T287A-1) was -8.213, the Span (best-fit, T287A-1) was 84.87 and the Top (best-fit, T287A-1) was 89.07. The EC50 (best-fit, T287A-1) was 6.12 nM, the Bottom (best-fit, T287A-2) was 5.592 and the LogEC50 (best-fit, T287A-2) was -8.324. The Span (best-fit, T287A-2) was 86.73, the Top (best-fit, T287A-2) was 92.33 and the EC50 (best-fit, T287A-2) was 4.75 nM. It also gave a Bottom (best-fit, T287A-3) of 0.1327, a LogEC50 (best-fit, T287A-3) of -8.522 and a Span (best-fit, T287A-3) of 80.53. For the same compound, the Top (best-fit, T287A-3) was 80.66, the EC50 (best-fit, T287A-3) was 3 nM and the LogEC50 (best-fit, W188A-1) was -8.611. It also gave a Span (best-fit, W188A-1) of 57.05, a Top (best-fit, W188A-1) of 61.7 and an EC50 (best-fit, W188A-1) of 2.45 nM. The Bottom (best-fit, W188A-2) was 0.0794, the LogEC50 (best-fit, W188A-2) was -8.245 and the Span (best-fit, W188A-2) was 81.84. The Top (best-fit, W188A-2) was 81.92, the EC50 (best-fit, W188A-2) was 5.69 nM and the Bottom (best-fit, W188A-3) was 6.02. It also gave a LogEC50 (best-fit, W188A-3) of -8.295, a Span (best-fit, W188A-3) of 58.94 and a Top (best-fit, W188A-3) of 64.96. It also gave an EC50 (best-fit, W188A-3) of 5.07 nM, an Emax (β-arrestin recruitment, I130A, earlier manuscript version quoted by reviewer, superseded) of 60% and an Emax (β-arrestin recruitment, SSTR2 D295(7.36)A, detected at 10 μM, n=3) of 119.20±34.68 %WT. It also gave an EC50 (β-arrestin recruitment, SSTR2 D295(7.36)A, n=3) of 319 ± 6.78 nM, an Emax [1] of 52.62±2.57 %WT and an EC50 [1] of 4.33 ± 1.53 nM. The Emax (β-arrestin recruitment, SSTR2 F208(5.38)A, n=3) was 75.93±9.81 %WT, the EC50 (β-arrestin recruitment, SSTR2 F208(5.38)A, n=3, ND = not detected) was 163 ± 6.17 nM and the Emax (β-arrestin recruitment, SSTR2 F265(6.44)A, detected at 10 μM, n=3 octreotide, 4 paltusotine) was 67.17±9.75 %WT. For the same compound, the Emax (β-arrestin recruitment, SSTR2 I130(3.40)A, detected at 10 μM, n=3) was 76.52±9.52 %WT, the Emax [2] was 59.10±0.47 %WT and the EC50 [2] was 54.3 ± 4.1 nM. For the same compound, the Emax [3] was 89.03±9.00 %WT, the EC50 [3] was 55.7 ± 2.03 nM and the Emax (β-arrestin recruitment, SSTR2 L99(2.60)A, n=3) was 96.13±25.27 %WT. For the same compound, the EC50 (β-arrestin recruitment, SSTR2 L99(2.60)A, n=3, ND = not detected) was 91.6 ± 3.34 nM, the Emax [4] was 85.66±1.04 %WT and the EC50 [4] was 1.8 nM. The Emax (β-arrestin recruitment, SSTR2 P220(5.50)A, n=3) was 61.16±16.24 %WT, the EC50 (β-arrestin recruitment, SSTR2 P220(5.50)A, n=3 octreotide, 4 paltusotine, ND = not detected) was 99.8 ± 9 nM and the Emax [5] was 76.51±12.11 %WT. For the same compound, the EC50 [5] was 6.35 ± 1.59 nM, the Emax (β-arrestin recruitment, SSTR2 Q102(2.63)A, detected at 10 μM, n=3) was 57.95±5.20 %WT and the Emax [6] was 87.86±7.76 %WT. For the same compound, the EC50 [6] was 11.9 ± 4.76 nM, the Emax [7] was 79.09±5.45 %WT and the EC50 [7] was 0.84 nM. For the same compound, the Emax (β-arrestin recruitment, SSTR2 T194(45.51)A, n=3) was 55.69±0.38 %WT, the EC50 (β-arrestin recruitment, SSTR2 T194(45.51)A, n=3, ND = not detected) was 48.7 ± 3.38 nM and the Emax [8] was 87.90±2.95 %WT. For the same compound, the EC50 [8] was 4.71 ± 8.35 nM, the Emax [9] was 84.83±0.26 %WT and the EC50 [9] was 63.7 ± 5.11 nM. The Emax [10] was 69.46±6.21 %WT, the EC50 [10] was 4.34 ± 9.5 nM and the Emax [11] was 33.36±2.81 %WT. The EC50 [11] was 55.3 ± 1.35 nM, the Emax [12] was 61.91±5.26 %WT and the EC50 [12] was 4.87 ± 3.17 nM. The Emax [13] was 108.30±13.91 %WT, the EC50 [13] was 8.52 ± 5.74 nM and the Emax [14] was 109.40±18.82 %WT. It also gave an EC50 [14] of 1.82 nM.
